According to US10590129B2 (Incozen Therapeutics Pvt. Ltd., priority 2010, dated 2020):
Where a name gives a salt, the structure may show the parent alone.

Test system: MKN-45 cells
Test: Inhibition of MKN-45 proliferation (MTT)
Type: cell-based, human
Conditions: for inhibition at 1 µM / GI50 / inhibition at 0.1 µM: Homo sapiens, MKN-45, MKN-45 proliferation; for Inhibition (% Inhibition of MKN-45 proliferation) / inhibition at 0.1 µM: 0.1 μM
Procedure: Inhibition of MKN-45 Proliferation:
Cell proliferation assays were carried out using the high Met expressing human gastric adenocarcinoma cell line, MKN-45, according to the following schedule:
Day 1: Cells were plated in 96-well plates in complete growth medium.
Day 2: Compounds at desired concentrations were added.
Day 5: Cell viability was determined using the 3-[4,5-dimethylthiazol-2-yl]-2,5-diphenyltetrazolium bromide (MTT) dye reduction test.

Row | GI50 [nM] | SMILES | inhibition at 0.1 µM [%] | other results
1 |  | Cl.O=C(Nc1nc[nH]n1)c1ccc(-c2ccc3nnn(Cc4ccc5ncccc5c4)c3n2)cc1F [Ex 127, 2-Fluoro-4-(3-(quinolin-6-ylmethyl)-3H-[1,2,3]triazolo[4,5-b]pyridin-5-yl)-N-(1H-1,2,4-triazol-3-yl)benzamide hydrochloride] |  | inhibition at 1 µM (1 μM): 75 to 100%; Inhibition (% Inhibition of MKN-45 proliferation) (MKN-45 proliferation): A (A = ≥75 to 100%)
2 | ≤ 50 | CCNC(=O)c1ccc(-c2ccc3nnn(Cc4cc5cccnc5cc4F)c3n2)cc1Cl [Ex 133, 2-Chloro-N-ethyl-4-(3-((7-fluoroquinolin-6-yl)methyl)-3H-[1,2,3]triazolo[4,5-b]pyridin-5-yl)benzamide] | 75 to 100 | 
3 |  | COC(=O)c1ccc(-c2ccc3nnn(Cc4cc5cccnc5cc4F)c3n2)cc1F [Ex 135, Methyl 2-fluoro-4-(3-((7-fluoroquinolin-6-yl)methyl)-3H-[1,2,3]triazolo[4,5-b]pyridin-5-yl)benzoate] | < 25 | 
4 |  | NC(=O)c1cccc(-c2ccc3nnn(Cc4ccc5ncccc5c4)c3n2)c1 [Ex 138, 3-(3-(Quinolin-6-ylmethyl)-3H-[1,2,3]triazolo[4,5-b]pyridin-5-yl)benzamide] | 25 to 50 | inhibition at 1 µM (1 μM): 75 to 100%
5 |  | Cl.NC(=O)c1ccc(-c2ccc3nnn(Cc4cc5cccnc5cc4F)c3n2)cc1F [Ex 141, 2-Fluoro-4-(3-((7-fluoroquinolin-6-yl)methyl)-3H-[1,2,3]triazolo[4,5-b]pyridin-5-yl)benzamide hydrochloride] |  | Inhibition (% Inhibition of MKN-45 proliferation) (MKN-45 proliferation): A (A = ≥75 to 100%); % inhibition @ 1 uM (MKN-45 proliferation, 1 μM): A (A = ≥75 to 100%)
6 | 50 to 150 | Cc1cc(-c2ccc3nnn(Cc4ccc5ncccc5c4)c3n2)ccc1C(N)=O [Ex 142, 2-Methyl-4-(3-(quinolin-6-ylmethyl)-3H-[1,2,3]triazolo[4,5-b]pyridin-5-yl)benzamide] | 75 to 100 | 
7 | 50 to 150 | c1cnc2ccc(Cn3nnc4ccc(-c5cn[nH]c5)nc43)cc2c1 [Ex 143, 6-((5-(1H-Pyrazol-4-yl)-3H-[1,2,3]triazolo[4,5-b]pyridin-3-yl)methyl)quinoline] |  | 
8 | 50 to 150 | Cn1cc(-c2ccc3nnn(Cc4ccc5ncccc5c4)c3n2)cn1 [Ex 144, 6-((5-(1-Methyl-1H-pyrazol-4-yl)-3H-[1,2,3]triazolo[4,5-b]pyridin-3-yl)methyl)quinoline] |  | 
9 | 150 to 500 | Cc1n[nH]c2cc(-c3ccc4nnn(Cc5ccc6ncccc6c5)c4n3)ccc12 [Ex 168, 6-((5-(3-Methyl-1H-indazol-6-yl)-3H-[1,2,3]triazolo[4,5-b]pyridin-3-yl)methyl)quinoline] |  | 
10 | < 1000 | c1cnc2ccc(Cn3nnc4ccc(-c5ccc6[nH]ccc6c5)nc43)cc2c1 [Ex 169, 6-((5-(1H-Indol-5-yl)-3H-[1,2,3]triazolo[4,5-b]pyridin-3-yl)methyl)quinoline] |  | 
11 | < 1000 | c1cnc2ccc(Cn3nnc4ccc(-c5ccc6cc[nH]c6c5)nc43)cc2c1 [Ex 170, 6-((5-(1H-Indol-6-yl)-3H-[1,2,3]triazolo[4,5-b]pyridin-3-yl)methyl)quinoline] |  | 
12 | 150 to 500 | Clc1cc(-c2ccc3nnn(Cc4ccc5ncccc5c4)c3n2)ccn1 [Ex 171, 6-((5-(2-Chloropyridin-4-yl)-3H-[1,2,3]triazolo[4,5-b]pyridin-3-yl)methyl)quinoline] |  | 
13 | < 1000 | Cc1n[nH]c2ccc(-c3ccc4nnn(Cc5ccc6ncccc6c5)c4n3)cc12 [Ex 172, 6-((5-(3-Methyl-1H-indazol-5-yl)-3H-[1,2,3]triazolo[4,5-b]pyridin-3-yl)methyl)quinoline] |  | 
14 | < 1000 | c1cncc(-c2ccc3nnn(Cc4ccc5ncccc5c4)c3n2)c1 [Ex 173, 6-((5-(Pyridin-3-yl)-3H-[1,2,3]triazolo[4,5-b]pyridin-3-yl)methyl)quinoline] |  | 
15 | 150 to 500 | c1cnc2ccc(Cn3nnc4ccc(-c5cnn([C@H]6CCNC6)c5)nc43)cc2c1 [Ex 175, (S)-6-((5-(1-(Pyrrolidin-3-yl)-1H-pyrazol-4-yl)-3H-[1,2,3]triazolo[4,5-b]pyridin-3-yl)methyl)quinoline hydrochloride] |  | 
16 | < 1000 | c1cnc2ccc(Cn3nnc4ccc(-c5cnn(CCN6CCOCC6)c5)nc43)cc2c1 [Ex 176, 4-(2-(4-(3-(Quinolin-6-ylmethyl)-3H-[1,2,3]triazolo[4,5-b]pyridin-5-yl)-1H-pyrazol-1-yl)ethyl)morpholine hydrochloride] |  | 
17 | < 1000 | c1cnc2ccc(Cn3nnc4ccc(-c5cnn(C6CCOCC6)c5)nc43)cc2c1 [Ex 177, 6-((5-(1-(Tetrahydro-2H-pyran-4-yl)-1H-pyrazol-4-yl)-3H-[1,2,3]triazolo[4,5-b]pyridin-3-yl)methyl)quinoline] |  | 
18 | 150 to 500 | Cc1nn(C)c2cc(-c3ccc4nnn(Cc5ccc6ncccc6c5)c4n3)ccc12 [Ex 179, 6-((5-(1,3-dimethyl-1H-indazol-6-yl)-3H-[1,2,3]triazolo[4,5-b]pyridin-3-yl)methyl)quinoline] |  | 
19 |  | CCc1nn(C(=O)OC(C)(C)C)c2cc(-c3ccc4nnn(Cc5ccc6ncccc6c5)c4n3)ccc12 [Ex 181, tert-Butyl 3-ethyl-6-(3-(quinolin-6-ylmethyl)-3H-[1,2,3]triazolo[4,5-b]pyridin-5-yl)-1H-indazole-1-carboxylate] | < 25 | inhibition at 1 µM (1 μM): 75 to 100%

Row | GI50 [nM] | SMILES | inhibition at 0.1 µM [%] | other results
20 |  | CC(C)(c1ccc2ncccc2c1)n1nnc2ccc(-c3cnn(CCO)c3)nc21 [Ex 190, 2-(4-(3-(2-(Quinolin-6-yl)propan-2-yl)-3H-[1,2,3]triazolo[4,5-b]pyridin-5-yl)-1H-pyrazol-1-yl)ethanol] | < 25 | inhibition at 1 µM (1 μM): < 25%
21 |  | CC(C)(c1ccc2ncccc2c1)n1nnc2ccc(-c3cn[nH]c3)nc21 [Ex 192, 6-(2-(5-(1H-Pyrazol-4-yl)-3H-[1,2,3]triazolo[4,5-b]pyridin-3-yl)propan-2-yl)quinoline] | < 25 | inhibition at 1 µM (1 μM): < 25%
22 |  | O=C(Cn1cc(-c2ccc3nnn(Cc4ccc5ncccc5c4)c3n2)cn1)N1CCCC1 [Ex 200, 1-(Pyrrolidin-1-yl)-2-(4-(3-(quinolin-6-ylmethyl)-3H-[1,2,3]triazolo[4,5-b]pyridin-5-yl)-1H-pyrazol-1-yl)ethanone] | < 25 | 
23 |  | COCCn1cc(-c2ccc3nnn(Cc4ccc5ncccc5c4)c3n2)cn1 [Ex 201, 6-((5-(1-(2-Methoxyethyl)-1H-pyrazol-4-yl)-3H-[1,2,3]triazolo[4,5-b]pyridin-3-yl)methyl)quinoline] | < 25 | 
24 |  | c1ccc(Nc2ccc3nnn(Cc4ccc5ncccc5c4)c3n2)cc1 [Ex 202, N-Phenyl-3-(quinolin-6-ylmethyl)-3H-[1,2,3]triazolo[4,5-b]pyridin-5-amine] | < 25 | 
25 |  | c1ccc(Oc2ccc3nnn(Cc4ccc5ncccc5c4)c3n2)cc1 [Ex 203, 6-((5-Phenoxy-3H-[1,2,3]triazolo[4,5-b]pyridin-3-yl)methyl)quinoline] | < 25 | 
26 |  | NC(=O)c1cc(-c2ccc3nnn(Cc4ccc5ncccc5c4)c3n2)ccc1F [Ex 206, 2-Fluoro-5-(3-(quinolin-6-ylmethyl)-3H-[1,2,3]triazolo[4,5-b]pyridin-5-yl)benzamide] | 50 to 75 | 
27 | ≤ 50 | NC(=O)c1ccc(-c2ccc3nnn(Cc4c(F)cc5ncccc5c4F)c3n2)cc1Cl [Ex 207, 2-Chloro-4-(3-((5,7-difluoroquinolin-6-yl)methyl)-3H-[1,2,3]triazolo[4,5-b]pyridin-5-yl)benzamide] | 75 to 100 | 
28 | ≤ 50 | C/C(=N/NC(N)=O)c1ccc2nnn(Cc3ccc4ncccc4c3)c2n1 [Ex 209, 2-(1-(3-(Quinolin-6-ylmethyl)-3H-[1,2,3]triazolo[4,5-b]pyridin-5-yl)ethylidene) hydrazinecarboxamide] | 75 to 100 | 
29 | ≤ 50 | NC(=O)c1ccc(-c2ccc3nnn(Cc4ccc5ncsc5c4)c3n2)cc1Cl [Ex 210, 4-(3-(Benzo[d]thiazol-6-ylmethyl)-3H-[1,2,3]triazolo[4,5-b]pyridin-5-yl)-2-chlorobenzamide] | 75 to 100 | 
30 | 150 to 500 | CC(C)(O)c1ccc(-c2ccc3nnn(Cc4ccc5ncccc5c4)c3n2)cc1F [Ex 211, 2-(2-Fluoro-4-(3-(quinolin-6-ylmethyl)-3H-[1,2,3]triazolo[4,5-b]pyridin-5-yl)phenyl)propan-2-ol] |  | 
31 |  | NC(=O)c1cc(-c2ccc3nnn(Cc4ccc5ncccc5c4)c3n2)ccc1Cl [Ex 212, 2-Chloro-5-(3-(quinolin-6-ylmethyl)-3H-[1,2,3]triazolo[4,5-b]pyridin-5-yl)benzamide] | 75 to 100 | inhibition at 1 µM (1 μM): 25 to 50%
32 |  | NC(=O)c1ccc(-c2ccc3ncn(Cc4ccc5ncccc5c4)c3n2)cc1Cl [Ex 215, 2-Chloro-4-(3-(quinolin-6-ylmethyl)-3H-imidazo[4,5-b]pyridin-5-yl)benzamide] | < 25 | 
33 |  | CC(=NO)c1ccc2nnn(Cc3ccc4ncccc4c3)c2n1 [Ex 216, 1-(3-(Quinolin-6-ylmethyl)-3H-[1,2,3]triazolo[4,5-b]pyridin-5-yl)ethanone oxime] | < 25 | 
34 |  | CON=C(C)c1ccc2nnn(Cc3ccc4ncccc4c3)c2n1 [Ex 217, 1-(3-(Quinolin-6-ylmethyl)-3H-[1,2,3]triazolo[4,5-b]pyridin-5-yl)ethanone O-methyl oxime] | 50 to 75 | 
35 |  | CC(=O)NN=C(C)c1ccc2nnn(Cc3ccc4ncccc4c3)c2n1 [Ex 218, N′-(1-(3-(Quinolin-6-ylmethyl)-3H-[1,2,3]triazolo[4,5-b]pyridin-5-yl)ethylidene) acetohydrazide] | < 25 | 
36 |  | CN1CCN(c2ccc3nnn(Cc4ccc5ncccc5c4)c3n2)CC1 [Ex 219, 6-((5-(4-Methylpiperazin-1-yl)-3H-[1,2,3]triazolo[4,5-b]pyridin-3-yl)methyl)quinoline] | < 25 | 
37 |  | NC(=O)c1ccc(-c2ccc3nnn(Cc4ccc5ncccc5c4)c3n2)cc1C(F)(F)F [Ex 223, 4-(3-(Quinolin-6-ylmethyl)-3H-[1,2,3]triazolo[4,5-b]pyridin-5-yl)-2-(trifluoromethyl)benzamide] | 75 to 100 | 
